The OPERA property sets (Mansouri et al. 2018)

`CN(C)C(=O)c1ccccc1Cl` showed a logP of 1.54.
`CC(C)N(C(=O)c1ccccc1Cl)C(C)C` gave a logP of 3.
Compound `CN(C)C(=O)Cc1ccccc1` has a logP of 1.48.
In the case of `O=C(c1ccccc1)N1CCCCC1`, the logP is reported as 2.2.
In the case of `Cc1cccc(C(=O)N(C)C)c1`, the logP is reported as 1.6.
`CC(C)N(C(=O)Cc1ccccc1)C(C)C` gave a logP of 3.1.
In the case of `CCN(CC)C(=O)Cc1ccccc1`, the logP is reported as 2.4.
In the case of `COc1ccc(C(=O)N2CCCCC2)cc1`, the logP is reported as 2.4.
Compound `Cc1cccc(C(=O)N2CCCCC2)c1` has a logP of 2.6.
In the case of `CCNC(=O)c1ccccc1OCC`, the logP is reported as 2.4.
Compound `CCNC(=O)c1ccc(OC)cc1` has a logP of 1.14.
`CCNC(=O)c1ccc(C)cc1` gave a logP of 1.38.
Compound `CCNC(=O)Cc1ccccc1` has a logP of 1.
Work on `CCOc1ccccc1C(=O)N(C(C)C)C(C)C` yielded a logP of 3.
In the case of `CCN(CC)C(=O)c1ccccc1Cl`, the logP is reported as 2.1.
Work on `Cc1ccc(C(=O)N(C(C)C)C(C)C)cc1` yielded a logP of 2.5.
`CCN(CC)C(=O)c1ccc(C)cc1` showed a logP of 2.38.
`CCNC(=O)c1cccc(C)c1` gave a logP of 1.32.
Compound `O=C(c1ccccc1Cl)N1CCCCC1` has a logP of 2.8.
`COc1ccc(C(=O)N(C(C)C)C(C)C)cc1` showed a logP of 2.8.
`Cc1ccc(C(=O)N2CCCCC2)cc1` showed a logP of 2.8.
In the case of `CCN(CC)C(=O)CC1CCCCC1`, the logP is reported as 3.12.
Work on `Cc1ccc(C(=O)N(C)C)cc1` yielded a logP of 1.72.
For `CCNC(=O)CC1CCCCC1`, the logP was 2.28.
`CN(C)C(=O)CC1CCCCC1` showed a logP of 2.19.
For `O=C(Cc1ccccc1)N1CCCCC1`, the logP was 2.44.
Work on `Cc1cccc(C(=O)N(C(C)C)C(C)C)c1` yielded a logP of 3.
Work on `CC(C)N(C(=O)c1ccccc1)C(C)C` yielded a logP of 2.5.
`O=C(CC1CCCCC1)N1CCCCC1` gave a logP of 3.2.
`CCOc1ccccc1C(=O)N(CC)CC` gave a logP of 2.5.
`CCOc1ccccc1C(=O)N1CCCCC1` showed a logP of 2.6.
